Patent US8710089B2, “Triazole derivatives as ghrelin analogue ligands of growth hormone secretagogue receptors” (Zentaris GmbH, priority 2005, dated 2014)

Legend:
human GHS-R 1a = target: T1, human GHS-R 1a (Homo sapiens, UniProt Q92847); assay: GHS-R 1a receptor-ligand binding assay (membrane preparations from transfected LLC PK-1 cells); settings: displacement of 125I-His9-ghrelin (60 pM); membranes of LLC PK-1 cells transfected with human GHS-R 1a; mean of at least two independent experiments in triplicates
T1 construct: expressed in transfected cells; host or cells: LLC PK-1 porcine renal epithelial cells (ECACC No. 86121112), isolated plasma membranes
Procedure, shortened: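 Membranes from LLC PK-1 cells expressing human GHS-R 1a incubated 60 min at 25 °C in 50 mM Tris pH 7.3, 5 mM MgCl2, 2.5 mM EDTA, bacitracin with 60 pM 125I-ghrelin and competitor; nonspecific binding with 10^-6 M ghrelin; filtration read-out.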

[1] = system: young-adult male Sprague-Dawley rats; assay: Feeding behavior (food intake) of young-adult male rats; assay type: in vivo, rat (Sprague-Dawley)
Protocol: V) Assaying the Feeding Behavior (Food Intake) of Young-Adult Male Rats
The impact of compounds of the invention being GHS receptor analogue ligands on the feeding behaviour, i.e. food intake, of young-adult male rats was assayed.
In principle, assaying the feeding behavior (food intake) of young-adult male rats was performed according to Torsello et al. (Eur. J. Pharmacol. 1998, 360: 123-129).
For the assay, young-adult male Sprague-Dawley rats (Charles River, Calco, Italy), weighing 200-250 g, were used.
Rats had 1 week of acclimation in individual home cages, and animal room conditions (22±2° C., 65% humidity, artificial light from 08.00 to 20.00 h). The following week, they were daily trained to mimic the experimental procedure. Rats maintained free access to dry pellets and tap water throughout the whole experimental period. At the end of training, rats were administered (around 10.00-11.00 a.m.) subcutaneously with the compounds to be tested (160 μg/kg body weight) and/or hexarelin (80 μg/kg body weight) and/or solvent [DMSO (0.4% of total volume), distilled water (4% of total volume), brought to the final volume with physiological saline].
Hexarelin was used to study the effects of the compounds to be tested on stimulated feeding behavior. Immediately after the injections, the animals were returned to their home cages, which contained a known amount of standard rat chow and ad libitum water. Every hour for the following 6 hours, the remaining food was carefully collected and weighed to the nearest 0.1 g. Food intake was normalized for the body weight of the rats and expressed as grams of food eaten per 100 g body weight of rats.
In the following table 4 results obtained for selected compounds of the invention are presented.

[2] = compound 160 μg/kg s.c. + hexarelin 80 μg/kg s.c.
[3] = compound alone, 160 μg/kg body weight s.c.

T1 sequence (Q92847 whole entry): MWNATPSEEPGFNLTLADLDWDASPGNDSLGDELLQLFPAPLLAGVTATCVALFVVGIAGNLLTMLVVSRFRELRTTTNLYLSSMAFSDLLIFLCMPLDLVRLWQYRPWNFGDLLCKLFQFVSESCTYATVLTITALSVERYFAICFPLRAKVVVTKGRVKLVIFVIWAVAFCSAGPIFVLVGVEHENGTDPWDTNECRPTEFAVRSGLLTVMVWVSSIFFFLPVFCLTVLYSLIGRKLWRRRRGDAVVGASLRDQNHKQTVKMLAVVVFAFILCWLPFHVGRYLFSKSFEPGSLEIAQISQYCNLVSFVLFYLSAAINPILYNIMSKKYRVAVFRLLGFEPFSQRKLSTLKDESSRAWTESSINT

Row | IC50 (human GHS-R 1a) [nM] | Structure (SMILES) | Cumulative food intake (after 2 hours) [1, 2] [g food/100 g body weight] | Cumulative food intake (after 6 hours) [1, 2] [g food/100 g body weight] | Cumulative food intake (after 2 hours) [1, 3] [g food/100 g body weight] | Cumulative food intake (after 6 hours) [1, 3] [g food/100 g body weight]
1 | 32 | COc1ccc(Cn2c(CCc3c[nH]c4ccccc34)nnc2[C@@H](Cc2c[nH]c3ccccc23)NC(=O)C2CNCCN2)c(OC)c1 (mixture of isomers) [compound 72] | 0.634 ± 0.33 | 0.746 ± 0.31 | 0.008 ± 0.003 | 0.011 ± 0
2 | 138 | COc1ccc(Cn2c(Cc3ccccc3)nnc2[C@@H](Cc2c[nH]c3ccccc23)NC(=O)C(C)(C)N)cc1 [compound 13, (R)—N-(1-(4-(4-methoxybenzyl)-5-benzyl-4H-1,2,4-triazol-3-yl)-2-(1H-indol-3-yl)ethyl)-2-amino-2-methylpropanamide] | 0.731 ± 0.318 | 0.792 ± 0.337 | 0.057 ± 0.057 | 0.167 ± 0.167
3 | 156 | CC(C)(N)C(=O)N[C@H](Cc1c[nH]c2ccccc12)c1nnc(CCc2c[nH]c3ccccc23)n1CCc1c[nH]c2ccccc12 [compound 17, (R)—N-(1-(4,5-bis(2-(1H-indol-3-yl)ethyl)-4H-1,2,4-triazol-3-yl)-2-(1H-indol-3-yl)ethyl)-2-amino-2-methylpropanamide] | 0.0501 ± 0.049 | 0.846 ± 0.411 | 0.001 ± 0.001 | 0.2661 ± 0.166
4 | – | COc1ccc(Cn2c(CCc3ccccc3)nnc2[C@@H](Cc2c[nH]c3ccccc23)NC(=O)[C@H]2CCCCN2)cc1 [compound 49, (R)—N—((R)-1-(4-(4-methoxybenzyl)-5-phenethyl-4H-1,2,4-triazol-3-yl)-2-(1H-indol-3-yl)ethyl)piperidine-2-carboxamide] | 0.057 ± 0.037 | 0.558 ± 0.212 | 0.004 ± 0.004 | 0.004 ± 0.004
5 | 33 | COc1ccc(-n2c(CCc3ccccc3)nnc2[C@@H](Cc2c[nH]c3ccccc23)NC(=O)c2ccccn2)c(OC)c1 [compound 159, N—((R)-2-(1H-indol-3-yl)-1-(4-(2,4-dimethoxyphenyl)-5-phenethyl-4H-1,2,4-triazol-3-yl)ethyl)picolinamide] | – | – | – | –
6 | 121 | COc1ccc(-n2c(CCc3ccccc3)nnc2[C@@H](Cc2c[nH]c3ccccc23)NC(=O)Cc2ccccn2)c(OC)c1 [compound 160, N—((R)-2-(1H-indol-3-yl)-1-(4-(2,4-dimethoxyphenyl)-5-phenethyl-4H-1,2,4-triazol-3-yl)ethyl)-2-(pyridin-2-yl)acetamide] | – | – | – | –
7 | 63 | COc1ccc(-n2c(CCc3ccccc3)nnc2[C@@H](Cc2c[nH]c3ccccc23)NC(=O)C2CCNCC2)c(OC)c1 [compound 163, N—((R)-2-(1H-indol-3-yl)-1-(4-(2,4-dimethoxyphenyl)-5-phenethyl-4H-1,2,4-triazol-3-yl)ethyl)piperidine-4-carboxamide] | – | – | – | –
8 | 207 | O=C(N[C@H](Cc1c[nH]c2ccccc12)c1nnc(Cc2ccccc2)n1Cc1ccccn1)c1ccccn1 [compound 164, N—((R)-1-(5-benzyl-4-((pyridin-2-yl)methyl)-4H-1,2,4-triazol-3-yl)-2-(1H-indol-3-yl)ethyl)picolinamide] | – | – | – | –
9 | 114 | CC(C)(N)C(=O)N[C@H](Cc1c[nH]c2ccccc12)c1nnc(CCc2ccccc2)n1Cc1ccccc1 [compound 173, N—((R)-1-(4-benzyl-5-phenethyl-4H-1,2,4-triazol-3-yl)-2-(1H-indol-3-yl)ethyl)-2-amino-2-methylpropanamide] | – | – | – | –
10 | 140 | CC(C)(N)C(=O)N[C@H](Cc1c[nH]c2ccccc12)c1nnc(CCc2c[nH]c3ccccc23)n1-c1ccccc1 [compound 175, N—((R)-1-(5-(2-(1H-indol-3-yl)ethyl)-4-phenyl-4H-1,2,4-triazol-3-yl)-2-(1H-indol-3-yl)ethyl)-2-amino-2-methylpropanamide] | – | – | – | –
11 | 80 | COc1ccc(Cn2c(CCc3ccccc3)nnc2[C@@H](Cc2c[nH]c3ccccc23)NC(=O)c2ccccc2)cc1 [compound 176, N—((R)-1-(4-(4-methoxybenzyl)-5-phenethyl-4H-1,2,4-triazol-3-yl)-2-(1H-indol-3-yl)ethyl)benzamide] | – | – | – | –
12 | 62 | COc1ccc(Cn2c(CCc3ccccc3)nnc2[C@@H](Cc2c[nH]c3ccccc23)NC(=O)C(C)(C)N)c(OC)c1 [compound 179, N—((R)-1-(4-(2,4-dimethoxybenzyl)-5-phenethyl-4H-1,2,4-triazol-3-yl)-2-(1H-indol-3-yl)ethyl)-2-amino-2-methylpropanamide] | – | – | – | –
13 | 189 | COc1ccc(Cn2c(CCc3ccccc3)nnc2[C@@H](Cc2c[nH]c3ccccc23)NCCN)c(OC)c1 [compound 180, N-1-((R)-1-(4-(2,4-dimethoxybenzyl)-5-phenethyl-4H-1,2,4-triazol-3-yl)-2-(1H-indol-3-yl)ethyl)ethane-1,2-diamine] | – | – | – | –
14 | 81 | O=C(N[C@H](Cc1c[nH]c2ccccc12)c1nnc(CCc2ccccc2)n1Cc1ccco1)c1ccccn1 [compound 182, N—((R)-1-(4-((furan-2-yl)methyl)-5-phenethyl-4H-1,2,4-triazol-3-yl)-2-(1H-indol-3-yl)ethyl)picolinamide] | – | – | – | –
15 | 5.9 | COc1ccc(Cn2c(CCc3ccccc3)nnc2[C@@H](Cc2c[nH]c3ccccc23)NC(=O)C2CCOCC2)cc1 [compound 184, N—((R)-1-(4-(4-methoxybenzyl)-5-phenethyl-4H-1,2,4-triazol-3-yl)-2-(1H-indol-3-yl)ethyl)-tetrahydro-2H-pyran-4-carboxamide] | – | – | – | –
16 | 175 | COc1ccc(Cn2c(CCc3ccccc3)nnc2[C@@H](Cc2c[nH]c3ccccc23)NC(=O)[C@@H](N)Cc2ccccc2)cc1 [compound 186, (2S)—N—((R)-1-(4-(4-methoxybenzyl)-5-phenethyl-4H-1,2,4-triazol-3-yl)-2-(1H-indol-3-yl)ethyl)-2-amino-3-phenylpropanamide] | – | – | – | –
17 | 66 | COc1ccc(Cn2c(CCc3c[nH]c4ccccc34)nnc2[C@@H](Cc2c[nH]c3ccccc23)NS(=O)(=O)c2ccc(C)cc2)c(OC)c1 [compound 187, (R)-1-(5-(2-(1H-indol-3-yl)ethyl)-4-(2,4-dimethoxybenzyl)-4H-1,2,4-triazol-3-yl)-2-(1H-indol-3-yl)-N-tosylethanamine] | – | – | – | –
18 | 87 | COc1ccc(Cn2c(CCc3ccccc3)nnc2[C@@H](Cc2c[nH]c3ccccc23)NC(=O)c2ccc(N=[N+]=[N-])cc2)c(OC)c1 [compound 188, N—((R)-1-(4-(2,4-dimethoxybenzyl)-5-phenethyl-4H-1,2,4-triazol-3-yl)-2-(1H-indol-3-yl)ethyl)-4-azidobenzamide] | – | – | – | –
19 | 12 | COc1ccc(Cn2c(CCc3c[nH]c4ccccc34)nnc2[C@@H](Cc2c[nH]c3ccccc23)NC(=O)[C@@H]2C=CCN2)cc1 [compound 190, (2S)—N—((R)-1-(5-(2-(1H-indol-3-yl)ethyl)-4-(4-methoxybenzyl)-4H-1,2,4-triazol-3-yl)-2-(1H-indol-3-yl)ethyl)-2,5-dihydro-1H-pyrrole-2-carboxamide] | – | – | – | –
